PMC4109680, “Identification and Preclinical Pharmacology of the γ-Secretase Modulator BMS-869780” (International Journal of Alzheimer's Disease, 2014)

Experiments:
[1] = Pharmacokinetics in male beagle dogs; format: in vivo; details: plasma, Dog
Protocol: Male Sprague-Dawley (SD) rats (300–350 g) were fasted overnight, and three per group received BMS-869780 either as an intravenous (IV) infusion in PEG400 : ethanol (90 : 10 w/w) at 1 mg/kg over 5 min via the jugular vein or as nanosuspension (d50 ca. 300 nm) by oral gavage at 5 mg/kg in Povidone K-30 : sodium lauryl sulfate : water (2.5 : 0.12 : 97.38 w/w/w/w). For the IV infusion, serial blood samples were obtained before dose and at 0.17, 0.25, 0.5, 0.75, 1, 2, 4, 6, 8, and 24 hours after dose. For the PO nanosuspension, serial blood samples were obtained before dose and at 0.25, 0.5, 0.75, 1, 2, 4, 6, 8, and 24 h after dose. Blood samples, ~0.3 mL, for all studies were collected from the jugular vein into K3EDTA-containing tubes and then centrifuged at 4°C (1500–2000 ×g) to obtain plasma, which was stored at −20°C until analysis by LC/MS/MS. In male beagle dogs, the PK of BMS-869780 was evaluated in a cross-over study design with a one-week washout between treatments. Dogs were fasted overnight, and three animals (9.5 to 10.7 kg) received BMS-869780 by IV infusion at 1 mg/kg over 5 minutes in PEG400 : ethanol (90 : 10 w/w) or as nanosuspension (d50 ca. 300 nm) by oral gavage at 5 mg/kg in Povidone K-30 : sodium lauryl sulfate : water (2.5 : 0.12 : 97.38 w/w/w/w). Serial blood samples (~0.3 mL) were collected from a saphenous vein into K3EDTA-containing tubes before dose and at 0.083, 0.17, 0.25, 0.5, 0.75, 1, 2, 4, 6, 8, and 24 hours after IV dose, and 0.25, 0.5, 0.75, 1, 2, 4, 6, 8, and 24 hours after oral dose, followed by centrifugation at 4°C (1500 to 2000 ×g) to obtain plasma. Samples were stored at −20°C until analysis of BMS-869780 levels by LC-MS/MS. In male cynomolgus monkeys, the PK of BMS-869780 was evaluated in a cross-over study design with a 1-week washout between treatments. Following an overnight fast, three animals (4.5 to 8 kg) received BMS-869780 by IV infusion via a femoral vein at 1 mg/kg over 10 minutes in PEG400 : ethanol (90 : 10), or by oral gavage at 5 mg/kg in Povidone K-30 : sodium lauryl sulfate : water (2.5 : 0.12 : 97.38). Serial blood samples, ~0.3 mL, were collected from a femoral artery into K3EDTA-containing tubes before dose and at 0.083, 0.17, 0.25, 0.5, 0.75, 1, 2, 4, 6, 8, and 24 hours after IV dose, and 0.25, 0.5, 0.75, 1, 2, 4, 6, 8, and 24 hours after oral dose, followed by centrifugation at 4°C (1500 to 2000 ×g) to obtain plasma. Samples were stored at −20°C until analysis of BMS-869780 levels by LC-MS/MS. The PK parameters of BMS-869780 were obtained by noncompartmental analysis of plasma concentration versus time data (WinNonlin software, Version 5.0; Pharsight Corporation, Mountain View, CA). The peak concentration (C max) and time for C max (T max) were recorded directly from experimental observations. The area under the curve from time zero to the last sampling time (AUC^0-T) and the area under the curve from time zero to infinity (AUC^INF) were calculated using a combination of linear and log trapezoidal summations. The total plasma clearance (CLTp), steady-state volume of distribution (Vss), apparent elimination half-life (T 1/2), and mean residence time (MRT) were estimated after IV administration. The absolute oral bioavailability (F) was estimated as the ratio of dose-normalized AUC values following oral and IV doses.
Figure 9 Pharmacokinetics (PK) of BMS-869780 across species for prediction of human PK. Rats, dogs, and cynomolgus monkeys were dosed with BMS-869780 intravenously (IV ▲) at 1 mg/kg or oral nanosuspension (PO ●) at 5 mg/kg. Plasma concentrations of BMS-869780 were determined for up to 24 hours after the dose. (a) Rat. (b) Dog. (c) Cynomolgus monkey.

[2] = Plasma protein bound fraction, rat; format: in vitro ADME

COc1cc(Nc2nc3n(n2)CCCC[C@H]3c2ccc(F)cc2)ccc1-n1cnc(Cl)c1 [BMS-869780]
AUC(0-t) ([1]; IV 1 mg/kg): 6.64 ± 2.26 µM·h | MRT ([1]; IV 1 mg/kg): 6.6 ± 2 h | clearance ([1]; IV 1 mg/kg): 5.7 ± 1.7 mL/min/kg | half-life ([1]; IV 1 mg/kg): 5.2 ± 1.4 h | Vd ([1]; IV 1 mg/kg, read-out: Vss): 2.2 ± 0.8 L/kg | AUC(0-t) ([1]; PO suspension 5 mg/kg): 4.55 ± 2.16 µM·h | Cmax ([1]; PO suspension 5 mg/kg): 487 ± 155 nM | Tmax ([1]; PO suspension 5 mg/kg): 1.7 ± 0.6 h | bioavailability ([1]; PO suspension 5 mg/kg): 13% | protein bound fraction [2]: 99.5%
